According to patent US9011910B2, “Implantable tizanidine compositions and methods of treatment thereof” (Endo Pharmaceuticals Solutions Inc., priority 2011, dated 2015):
Where a name gives a salt, the structure may show the parent alone. Read-outs that look alike come from different tables or passages of the source.

Tests used:
[1] = 2% stearic acid; for in vitro elution rate: nine pellets, 100 mL PBS at 37° C.; for release rate: about 250 mg API, up to 36 weeks
Excerpt: In one embodiment of the present invention, tizanidine is delivered to the subject at a target range of about 100 micrograms/day to about 10,000 micrograms/day. For example, tizanidine is delivered to the subject at a target range of about 100 to about 5,000 micrograms/day, or about 200 to about 4,000 micrograms per day, or about 300 to about 3,000 micrograms per day or about 400 to about 2,000 micrograms per day. The testing method set forth in the examples to determine the elution rates for compositions comprising tizanidine includes placing the implants in an elution bath consisting of PBS or 0.9% saline at 37° C. Weekly exchanges of the elution media are then analyzed by HPLC for the durations given.
The implants were sterilized by gamma irradiation and placed in an elution bath consisting of 100 mL PBS at 37° C.
A discrete solid dosage form was prepared as follows. The drug implants were manufactured using PEBAX® 2533 and PEBAX® 3533, as the tubing material and tizanidine free base as the API. […] A total of about 250 mg tizanidine free base were loaded into the implant with 10% croscarmellose and 2% stearic acid. The implant were sterilized by gamma irradiation and placed in an elution batch consisting of 200 mL 0.9% saline at 37° C.
A discrete solid dosage form was prepared as follows. Various polyurethanes were used as the tubing material (i.e., TECOFLEX® EG-80A, TECOFLEX® EG-85A, TECOFLEX® EG-93A, TECOPHILIC® HP-60D-05, and TECOPHILIC® HP-60D-10 polyurethanes) and tizanidine hydrochloride as the API. […] A total of about 380 mg tizanidine hydrochloride were loaded into the implant with 10% croscarmellose and 2% stearic acid. The implants were sterilized by gamma irradiation and placed in an elution batch consisting of 200 mL PBS at 37° C. Weekly exchanges of the elution media were analyzed by HPLC over 5 weeks.
The drug implants were manufactured as described in Example 3, except tizanidine free base was used as the API instead of tizanidine HCl. […] A total of about 250 mg tizanidine free base were loaded into the implants with 10% croscarmellose and 2% stearic acid. The implants were sterilized by gamma irradiation and placed in an elution batch consisting of 200 mL PBS at 37° C. Weekly exchanges of the elution media were analyzed by HPLC for up to 36 weeks.

[2] = oral dosage form, approximate; cited from earlier work

Question: With `Clc1ccc2nsnc2c1NC1=NCCN1` [tizanidine free base, 5-chloro-N-(4,5-dihydro-1H-imidazol-2-yl)benzo[c][1,2,5]thiadiazol-4-amine] as the compound, how does the “in vitro elution rate” value ([1]; TECOFLEX EG-80A implant, 5% croscarmellose, 405 mg API, week 2) read?
Answer: Its value is “about 1,200 μg/day”.

Question: And the “in vitro elution rate” value ([1]; TECOFLEX EG-80A implant, 5% croscarmellose, 405 mg API, week 27)?
Answer: Its value is “about 900 μg/day”.

Question: What about the “in vitro elution rate” value ([1]; TECOFLEX EG-80A implant, 15% croscarmellose, 360 mg API, week 2) of the same compound?
Answer: The value was “about 1,400 μg/day”.

Question: What about the “in vitro elution rate” value ([1]; TECOFLEX EG-80A implant, 15% croscarmellose, 360 mg API, week 27) of the same compound?
Answer: Its value is “about 1,250 μg/day”.

Question: And the release rate ([1]; TECOFLEX EG-80A implant, 10% croscarmellose, 200 mL PBS at 37° C.)?
Answer: Its release rate is “about 900 μg per day”.

Question: And the release rate ([1]; TECOFLEX EG-93A implant, 10% croscarmellose, 200 mL PBS at 37° C.)?
Answer: The release rate was “about 100 μg per day”.

Question: For `Clc1ccc2nsnc2c1NC1=NCCN1` [tizanidine HCl, tizanidine hydrochloride], which “drug release from the implants (elution rate in vitro)” value ([1]; all polyurethanes investigated (TECOFLEX EG-80A, EG-85A, EG-93A, TECOPHILIC HP-60D-05, HP-60D-10), about 380 mg API, 10% croscarmellose, 200 mL PBS at 37° C., 5 weeks) is on record?
Answer: Its value is “below 100 μg per day”.

Question: And the oral bioavailability [2]?
Answer: Its oral bioavailability is 20-40%.
